# Results: patent publication EP0487382A1, “Use of buflomedil for the protection of the myocardium by coronary angioplasty” (LABORATOIRE L. LAFON, priority 1990, dated 1992)
# Tests used:
# chiens [1] = test: Coronary balloon angioplasty occlusion (15 min) and reperfusion in anaesthetised dogs, first series; format: in vivo
# Protocol: (§1) 1 - On a réalisé des essais comparatifs chez des chiens auxquels on a administré par voie intraveineuse en 15 minutes : • soit du buflomédil (chlorhydrate) à la dose de 10 mg/kg; • soit un placebo.
# Le protocole opératoire était le suivant :
# (§2) les chiens ont reçu une prémédication consistant en 1,0 mg par kg de sulfate de morphine après une nuit de diète ainsi que 325 mg d'aspirine par voie orale.
# (§3) Les chiens ont été anesthésiés avec 12,5 mg/kg de thiopental et 72 mg/kg de chloralose par voie intraveineuse. On met en place un cathéter au niveau de l'artère fémorale pour la mesure de la pression artérielle et une canule sur la veine fémorale pour l'administration du produit à tester. L'artère carotide gauche reçoit une canule pour la mise en place du cathéter d'angioplastie, tandis que l'on met en place un cathéter au niveau du ventricule gauche via l'artère fémorale contralatérale.
# Les animaux sont alors héparinisés avec 500 unités U.I. par kg par voie I.V. On procède alors à l'administration du produit à tester ou du placebo à raison, pour le buflomédil, de 10 mg par mn. On administre ensuite de la lidocaïne par voie I.V. à raison de 1 mg/kg sous forme de bolus, puis par perfusion à raison de 1 mg par mn. […]
# chiens [2] = test: Coronary balloon occlusion (15 min) with follow-up of reperfusion in dogs, second series; format: in vivo; conditions: 10 mg/kg i.v.
# Protocol: as §1, §2, §3
# Les animaux sont alors héparinisés avec 500 unités U.I. par kg par voie I.V. On procède alors à l'administration du produit à tester ou du placebo à raison, pour le buflomédil, de 10 mg par mn. On administre ensuite de la lidocaïne par voie I.V. à raison de 1 mg/kg sous forme de bolus, puis par perfusion à raison de 1 mg par mn.
# 30 mn après la fin de la perfusion, on met en place un ballonnet d'angioplastie de 2,5-3,5 mm choisi en fonction de la taille des artères coronaires dans l'artère coronaire descendante antérieure gauche. Le ballon a été gonflé à une pression de 4.10⁵ Pa pendant 15 mn.
# 2 - Dans une deuxième série d'essais comparatifs, on a utilisé le même mode opératoire et les mêmes produits (buflomédil chlorhydrate à la dose de 10 mg/kg d'une part et placebo d'autre part) et on a suivi la reperfusion après 15 minutes d'occlusion avec un ballonnet.
# [3] = at the end of the occlusion, versus placebo
smiles,measurement,setting,value
"COc1cc(OC)c(C(=O)CCCN2CCCC2)c(OC)c1 [buflomédil, 4-(1-pyrrolidinyl)-1-(2,4,6-triméthoxyphényl)-1-butanone]",flux sanguins tissulaires au niveau du myocarde,"chiens [1]; 10 mg/kg i.v., measured during ischaemia in the ischaemic regions, versus placebo (Figure)",plus élevés
same,fibrillation ventriculaire lors de la reperfusion,"chiens [1]; buflomédil (chlorhydrate) 10 mg/kg i.v. over 15 min, 15 min balloon occlusion, placebo: 4 cas sur 10",n'a pas observé de fibrillation ventriculaire
same,fraction d'éjection,"chiens [2]; 30 minutes after reperfusion, placebo 69 %",89 % de la valeur normale du groupe
same,fraction d'éjection,"chiens [2]; 60 minutes after reperfusion, placebo 74 %",95%
same,zone de dysfonctionnement,"chiens [2]; after reperfusion, versus placebo",diminution
same,fraction d'éjection,chiens [2]; [3],n'a pas observé à la fin de l'occlusion de différence
same,perfusion sanguine transmurale,chiens [2]; [3],n'a pas observé à la fin de l'occlusion de différence
same,flux pendant la reperfusion,"chiens [2]; during reperfusion, versus placebo",flux accru
